Where two headings read alike, the source gives them in different places.
Key:
[1] = tested on: Pyricularia oryzae Carvara KA301; format: in vivo; conditions: Rice Blast
Botrytis cinerae = assay: Fungicidal activity against Cucumber Gray Mold Rot (CGM) disease; format: in vivo; conditions: Cucumber Gray Mold Rot; concentration 50 ppm
Method: Botrytis cinerae, which was isolated from cucumber infected thereby, was inoculated on a PDA agar medium and cultured under a 12L/12D cycle at 25° C. for 15 days to form spore. The spores were scraped, filtered through a gauze and then suspended in potato dextrose liquid medium at a concentration of 1×10^6 spore/ml. The spore suspension was sprayed on a cucumber plant having one leaf. The cucumber plant was held in a humidified room at 20° C. for 3 days. L.A. on a leaf was measured to calculate an C.V.

Phytophthora infestans = format: in vivo; conditions: Tomato Late Blight
Puccinia recondita = assay: Fungicidal activity against Wheat Leaf Rust (WLR) disease; format: in vivo; conditions: Wheat Leaf Rust
Erysiphae graminis = assay: Fungicidal activity against Barley Powdery Mildew (BPM) disease; format: in vivo; conditions: Barley Powdery Mildew
Rhizoctonia solani AG-1 = assay: Fungicidal activity against Rice Sheath Blight (RSB) disease; conditions: Rice Sheath Blight
Method: To examine fungicidal activity of the compounds of the present invention, each of the compounds listed in Table 3 and 4 was dissolved in 10% acetone to a concentration of 250 ppm, and Tween-20 was added thereto to a concentration of 250 or 500 ppm. 50 ml of the resulting solution was sprayed on leaves of a host plant. The plant was kept at room temperature for 24 hours to let the solvent evaporate, and then, a pathogenic fungus was inoculated thereonto. The plant was held in a humidity chamber for 24 hours, transferred to an plant growth room kept at 20 to 27° C. and a relative humidity of 60 to 80% and kept to induce disease. […] This procedure was repeated twice for each test. 10% Acetone solution containing 250 ppm of Tween-20 was used as a control.
The fungicidal activity of the compound of the present invention is repressed by a control value (C.V.) calculated as; [formula]
Rhizoctonia solani AG-1 was cultured on a PDA medium (potato 200 g, dextrose 20 g, agar 20 g and distilled water 1 ? for 3 days and the agar disc(diameter 0.6 cm) was inoculated and cultured on sterilized wheat bran medium in a 1 L bottle at 26 to 28° C. for 7 days. A mycelial mass was ground using a homogenizer, inoculated uniformly on soil of a pot wherein a Nakdong rice plant having 2 or 3 leaves and an height of 5 cm grew, and kept in humidity polyvinyl chamber for 5 days to induce RSB. L.A. on a leaf sheath was measured to calculate an C.V.

SMILES	RCV (Fungicidal Activities, C.V.) ([1]; concentration 2 ppm) [%]	RCV (Fungicidal Activities, C.V.) ([1]; concentration 10 ppm) [%]	RCV (Fungicidal Activities, C.V.) ([1]; concentration 50 ppm) [%]	CGM (Fungicidal Activities, C.V.) (Botrytis cinerae) [%]	TLB (Fungicidal Activities, C.V.) (Phytophthora infestans; concentration 2 ppm) [%]	TLB (Fungicidal Activities, C.V.) (Phytophthora infestans; concentration 10 ppm) [%]	TLB (Fungicidal Activities, C.V.) (Phytophthora infestans; concentration 50 ppm) [%]	WLR (Fungicidal Activities, C.V.) (Puccinia recondita; concentration 2 ppm) [%]	WLR (Fungicidal Activities, C.V.) (Puccinia recondita; concentration 10 ppm) [%]	WLR (Fungicidal Activities, C.V.) (Puccinia recondita; concentration 50 ppm) [%]	BPM (Fungicidal Activities, C.V.) (Erysiphae graminis; concentration 2 ppm) [%]	BPM (Fungicidal Activities, C.V.) (Erysiphae graminis; concentration 10 ppm) [%]	BPM (Fungicidal Activities, C.V.) (Erysiphae graminis; concentration 50 ppm) [%]	RSB (Fungicidal Activities, C.V.) (Rhizoctonia solani AG-1; concentration 2 ppm) [%]	RSB (Fungicidal Activities, C.V.) (Rhizoctonia solani AG-1; concentration 10 ppm) [%]	RSB (Fungicidal Activities, C.V.) (Rhizoctonia solani AG-1; concentration 50 ppm) [%]
CO/C=C(/C(=O)OC)c1ccccc1CON=C(C)c1cccc(OC(F)=Cc2ccccc2)c1 [Compound 40, Methyl (2E)-3-Methoxy-2-{2′-[[[3″-(1′″-fluoro-2′″-phenyl-1′″-ethenyloxy)phenyl]methylimino]oxy]methylphenyl}propenoate]	99	100	100	75	12	68	97	99	100	100	100	100	100	70	75	95
COC=C(C(=O)OC)c1ccccc1CON=C(C)c1cccc(OC(F)=Cc2cccc(C)c2)c1 [Compound 41]	98	100	100	51	6	25	96	99	100	100	100	100	100	55	70	95
COC=C(C(=O)OC)c1ccccc1CON=C(C)c1cccc(OC(F)=Cc2ccc(C)cc2)c1 [Compound 42]	58	96	100	64			97	98	100	100	100	100	100			70
COC=C(C(=O)OC)c1ccccc1CON=C(C)c1cccc(OC(F)=Cc2cc(C)cc(C)c2)c1 [Compound 44]	85	95	100	5			71	96	100	100	100	100	100			75
CCc1ccc(C=C(F)Oc2cccc(C(C)=NOCc3ccccc3C(=COC)C(=O)OC)c2)cc1 [Compound 45]	41	93	97	17			85	95	100	100	99	100	100			65
COC=C(C(=O)OC)c1ccccc1CON=C(C)c1cccc(OC(F)=Cc2ccc(OC)cc2)c1 [Compound 48]	41	96	100	64			95	99	100	100	100	100	100			75
COC=C(C(=O)OC)c1ccccc1CON=C(C)c1cccc(OC(F)=Cc2ccc(F)cc2)c1 [Compound 51]		99	100	52			97		100	100		100	100		88	90
COC=C(C(=O)OC)c1ccccc1CON=C(C)c1cccc(OC(F)=Cc2ccc(Cl)c(C)c2)c1 [Compound 52]		80	97	52			42		96	100		100	100			65
COC=C(C(=O)OC)c1ccccc1CON=C(C)c1cccc(OC(F)=Cc2ccc(Cl)cc2)c1 [Compound 54]	97	99	100	51			84	97	100	100	99	100	100	50	80	90
